One data set has as its target SARS-CoV-2 PL^pro (Severe acute respiratory syndrome coronavirus 2, UniProt P0DTD1). Description: SARS-CoV-2 PLpro protease activity, peptide substrate Z-RLRGG-AMC. The data set is classed as biochemical.
The nature of a further data set: in vitro. Conditions: African green monkey.
Data set [1] relates to wild type SARS-CoV-2 pseudo-particles. In kind it is cell-based.
Data set [2] shares this test system. Description: microbe, parasite or virus in culture. To be noted: Severe acute respiratory syndrome coronavirus 2, Vero C1008. The data set is classed as cell-based.
Data set [3] shares this test system. In kind it is cell-based. This is another data set of the same source.
For a further data set, the target named is SARS-CoV-2 M^pro (Severe acute respiratory syndrome coronavirus 2, UniProt P0DTD1). Put plainly: FRET based assay of SARS-CoV-2 Mpro protease activity. The data set is classed as biochemical.
The mark [4] stands for this setting: read-out: inhibitory effect on the protease activity of SARS-CoV-2 PL^pro.

SMILES strings stand for the structures.

Consider 1 molecule from US20210386695A1 (priority 2020, published 2021).

One may read the EC50 as the concentration at which the effect is half-maximal.

Regarding `CCN(CC)C(=S)SSC(=S)N(CC)CC` [disulfiram], the “inhibitory effect on the protease activity of SARS-CoV-2 PL^pro” value against SARS-CoV-2 PL^pro (1 μM disulfiram) is “does not inhibit”. Further, at SARS-CoV-2 PL^pro (setting [4]), the inhibition at 5 µM was determined as 21.7%, the inhibition at 10 µM worked out at 36.3%, the inhibition at 30 µM was found to be 77.9% and the inhibition at 60 µM came to 99.9%. The CC50 in “in vitro” turned out to be 15.7 µM. In addition, the “inhibitory capacity in furin-expressing Vero E6 cells compared with Vero E6 cells” value in data set [1] is on record as “similar”. In addition, the EC50 in data set [2] was 3.1 µM. The “block of viral pseudo-particles infection” value in data set [3] is “dose-dependent manner”. At SARS-CoV-2 M^pro, this molecule returned an inhibition at 1 µM of 16%, an inhibition at 5 µM of 80.9% and an inhibition at 10 µM of 87.1%. The “inhibition of protease activity of SARS-CoV-2 M^pro” value at SARS-CoV-2 M^pro (30 μM disulfiram) is “full inhibition”. For the same molecule, on SARS-CoV-2 M^pro (60 μM disulfiram), the “inhibition of protease activity of SARS-CoV-2 M^pro” value was “full inhibition”.
